Assay results as given in PubChem BioAssay (NCI).
Where “and” joins values, the source holds several entries; their conditions need not be identical. Identical values can stand only once.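 Test compounds were applied to cells in 96-well plates for 48 hours at 5 doses. GI50 is the concentration that inhibits growth by half. TGI denotes the concentration required for complete inhibition of growth.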

Legend:
Experiment in all cases: DTP human tumour cell line panel, 48 h
MDA-MB-435 = system: MDA-MB-435
BT-549 breast = system: BT-549 breast
HOP-18 NSCLC = system: HOP-18 NSCLC
DLD-1 colon = system: DLD-1 colon
XF 498 CNS = system: XF 498 CNS
LXFL 529 NSCLC = system: LXFL 529 NSCLC
SNB-78 CNS = system: SNB-78 CNS
RXF-631 renal = system: RXF-631 renal
MDA-N = system: MDA-N

SMILES | GI50 (MDA-MB-435) | TGI (MDA-MB-435) | GI50 (BT-549 breast) | TGI (BT-549 breast) | TGI (DLD-1 colon) | TGI (LXFL 529 NSCLC) | further results
NC1=NC(=O)N2CC12 (stereo unspecified) | 90.9 µM and 78 µM | 194 µM | 47.9 µM and 62.6 µM | 166 µM | > 100 µM | > 100 µM | TGI (HOP-18 NSCLC): > 100 µM; TGI (XF 498 CNS): > 100 µM
CC1(C)CCC(=O)c2c(O)ccc(O)c21 | – | – | – | – | – | > 100 µM | TGI (SNB-78 CNS): > 100 µM
CS(=O)(=O)CCNCc1ccc(-c2ccc3ncnc(Nc4ccc(OCc5ccccc5)c(C(F)(F)F)c4)c3c2)o1 | 4.8 µM | 10.5 µM | 8.99 µM | > 25 µM | – | – | –
COC(=O)C1=CC(O)CCC1c1ccc(OC)cc1 (stereo unspecified) | – | – | – | – | > 100 µM | > 100 µM | TGI (SNB-78 CNS): > 100 µM; TGI (HOP-18 NSCLC): > 100 µM
COc1cc2c(c(OC)c1OC)-c1ccc(OC)c(=O)cc1[C@@H](NC(=O)CCl)CC2 | < 0.01 µM | < 0.01 µM | < 0.01 µM | – | – | – | –
C/C(=C\c1ccn(-c2ccc(N)c(C(F)(F)F)c2)n1)[C@@H]1C[C@@H]2O[C@]2(C)CCC[C@H](C)[C@H](O)[C@@H](C)C(=O)C(C)(C)[C@@H](O)CC(=O)O1 | – | – | 0.0221 µM | 31.5 µM | – | – | –
CCCCCCCC[N+](C)(C)Cc1ccc(C[N+](C)(C)CCCCCCCC)cc1 | – | – | – | – | > 100 µM | > 100 µM | TGI (SNB-78 CNS): > 100 µM; TGI (RXF-631 renal): > 100 µM; TGI (HOP-18 NSCLC): > 100 µM
CN(C)CC/C=C1\c2ccccc2Sc2ccc(Cl)cc21 | 1.77 µM | 4.03 µM and 23.1 µM | 4.91 µM | 17.4 µM and 29.2 µM | – | – | TGI (MDA-N): 26.1 µM
CC(C)C1C(=O)N2CCCC2C2(O)OC(NC(=O)C3C=C4c5cccc6[nH]cc(c56)CC4N(C)C3)(C(C)C)C(=O)N12 (stereo unspecified) | – | > 100 µM | – | 88.6 µM | – | – | TGI (MDA-N): 67.5 µM
CON(C)C(=O)C(Cc1ccccc1)NC(=O)OC(C)(C)C (stereo unspecified) | – | > 100 µM | – | > 100 µM | – | – | TGI (MDA-N): > 100 µM
COc1cc(C(=O)C/C(CCC(=O)Nc2ccccc2[N+](=O)[O-])=N\NC(=O)C(N)=O)ccc1O | – | – | – | – | > 100 µM | > 100 µM | TGI (SNB-78 CNS): > 100 µM; TGI (RXF-631 renal): > 100 µM; TGI (HOP-18 NSCLC): > 100 µM
CCOC(=O)/C(=C/c1ccc(OC)c(OC)c1)C(=O)c1ccccc1 | – | – | – | – | 34.5 µM | 25.3 µM | TGI (SNB-78 CNS): 56.3 µM; TGI (XF 498 CNS): 29.9 µM
O=c1ncc(-c2ccc(C(F)(F)F)cc2)c(NC2CCCCCC2)[nH]1 | 15.6 µM | 34.4 µM | 19.5 µM | 39 µM | – | – | –
COc1cc2c(c(OC)c1OC)-c1ccc([O-])c(=O)cc1[C@@H](NC(C)=O)CC2.COc1cc2c(c(OC)c1OC)-c1ccc([O-])c(=O)cc1[C@@H](NC(C)=O)CC2.[Cu+2] | – | – | 2.56 µM | > 100 µM | – | – | –
Cc1ccc(-c2csc(N(C(=O)N3CCN(c4cc5c(cc4F)c(=O)c(C(=O)O)cn5C4CC4)CC3)c3ccccc3)n2)cc1 | – | – | 0.32 µM | 3.31 µM | – | – | –
CC(C)(Cl)CCC1=C(Cl)C(=O)c2ccccc2C1=O | 2.15 µM | 4.62 µM | 2.35 µM | 8.78 µM | – | – | –
O=C(O)C1C2C=CC(O2)C1C(=O)Nc1ccccc1 (stereo unspecified) | – | > 100 µM | – | > 100 µM | – | – | TGI (MDA-N): > 100 µM
COc1ccc(-c2cc(-c3ccc(Nc4nc(Nc5ccc(Cl)cc5)nc(Nc5ccc(Cl)cc5)n4)cc3)no2)cc1 | 10.3 µM | 37 µM | 17.2 µM | 72 µM | – | – | –

SMILES | GI50 (MDA-MB-435) | TGI (MDA-MB-435) | GI50 (BT-549 breast) | TGI (BT-549 breast) | TGI (DLD-1 colon) | TGI (LXFL 529 NSCLC) | further results
CCCCCCCCCCCCCCCCC1=CC(=O)C=C(OC)C1=O | – | > 100 µM | – | – | – | – | TGI (MDA-N): > 100 µM
Nc1nc(N)c2nc(CNc3ccc(C(=O)CC(CCC(=O)O)C(=O)O)cc3)cnc2n1 (stereo unspecified) | 0.137 µM | > 100 µM | 0.357 µM | – | – | – | –
COc1ccc(-c2coc3ncnc(N)c23)cc1 | > 25 µM | > 25 µM | > 25 µM | > 25 µM | – | – | –
O=c1c(O)c(-c2ccc(O)c(O)c2)oc2cc(O)ccc12 | – | – | – | – | > 100 µM | > 87.7 µM | TGI (SNB-78 CNS): 67.2 µM; TGI (HOP-18 NSCLC): 52.2 µM; TGI (XF 498 CNS): 44.1 µM
Cc1cc(N(CCC#N)CCC#N)ccc1/C=C1/CN(N2C(=O)/C(=C/c3ccc(N(CCC#N)CCC#N)cc3C)N=C2c2ccccc2)C(c2ccccc2)=N1 | – | – | – | – | > 100 µM | > 100 µM | TGI (SNB-78 CNS): > 100 µM; TGI (HOP-18 NSCLC): > 100 µM; TGI (XF 498 CNS): > 100 µM
O=C1C2CC3C(CC2C(=O)[N]1[Sn]([c]1ccccc1)([c]1ccccc1)[c]1ccccc1)C1(Cl)C(Cl)=C(Cl)C3(Cl)C1(Cl)Cl (stereo unspecified) | 0.0872 µM | 0.257 µM | 0.185 µM | 0.369 µM | – | – | –
O=c1[nH]cnc2c(C3OC(CO)C(O)C3O)[nH]nc12 (stereo unspecified) | – | > 100 µM | – | > 100 µM | – | – | TGI (MDA-N): > 100 µM
O=S(=O)(NCCNc1cc(-c2cn(-c3ccccc3)nc2-c2cccc(O)c2)ccn1)c1ccc(C(F)(F)F)cc1 | 2.4 µM | 7.63 µM | 2.02 µM | 7.07 µM | – | – | –
CCN1C(=O)N(CC)C2C1NN=c1s/c(=C3\C(=O)N(CCC(C)C)c4ccccc43)c(=O)n12 (stereo unspecified) | 0.308 µM | 1.14 µM | 1.96 µM | 6.33 µM | – | – | –
O=c1oc2ccc(Cl)cc2c(=O)n1-c1ccc(Cl)cc1F | 0.572 µM | 4.86 µM | 0.483 µM | 2.44 µM | – | – | –
COc1ccccc1/C=C/C(=O)c1sc(-c2cccnc2)nc1C | – | – | – | – | > 100 µM | – | TGI (SNB-78 CNS): > 100 µM; TGI (HOP-18 NSCLC): > 100 µM
CCOC(=O)C12CCCC1(O)N(NC(=O)c1cccc(Cl)c1)C(C)=C2C(=O)OC (stereo unspecified) | – | – | – | – | > 100 µM | > 100 µM | TGI (RXF-631 renal): > 100 µM; TGI (XF 498 CNS): > 100 µM
COc1ccc(OC)c(/C=C/c2nnc(Nc3ccc(Cl)cc3)o2)c1 | 37 µM | > 100 µM | – | – | – | – | –
O=C(O)/C(Cl)=C(\Cl)Nc1cccc(C(F)(F)F)c1 | – | – | – | – | > 100 µM | > 100 µM | TGI (SNB-78 CNS): > 100 µM; TGI (HOP-18 NSCLC): > 100 µM; TGI (XF 498 CNS): > 100 µM
COc1cc(N2CCC(N3CCN(C)CC3)CC2)ccc1Nc1ncc(Cl)c(Nc2ccccc2P(C)(C)=O)n1 | 2.94 µM | > 100 µM | 3.07 µM | 13.5 µM | – | – | –
Oc1c(Br)cc(Br)cc1CN(Cc1cc(Br)cc(Br)c1O)C1CCCCC1 | – | > 100 µM | – | 90.9 µM | – | – | TGI (MDA-N): > 100 µM
C=C1C(=O)O[C@@H]2[C@H]1CC[C@H](C)[C@]1(O)CCC(=O)[C@@]21C | – | > 10 µM | – | – | – | – | TGI (MDA-N): > 10 µM
CSc1nc(NC2OCC(OC(C)=O)C(OC(C)=O)C2OC(C)=O)c(N=CC=Nc2c(NC3OCC(OC(C)=O)C(OC(C)=O)C3OC(C)=O)nc(SC)n(C)c2=O)c(=O)n1C (stereo unspecified) | – | – | – | – | > 100 µM | > 100 µM | TGI (HOP-18 NSCLC): > 100 µM
